Laboratory results reported in EP0071535B1, “(4-(2 and/or 3-Thienylacetamido)-phenoxy)-hydroxyaminopropanes, their preparation, their therapeutic use and intermediates” (CARPIBEM (CENTRE D'ACTIVITE ET DE RECHERCHE PHARMACEUTIQUE …, priority 1981, dated 1983).

What was measured:
[1] = test system: effets β1 (augmentation de la force contractile du myocarde) de l'isoprénaline; experiment: β-blocking activity: inhibition of the β1 effects of intravenous isoprenaline in anaesthetised dogs; type: in vivo, chiens; details: dog; for inhibition at 0.001 mg/kg / inhibition at 0.003 mg/kg / inhibition at 0.01 mg/kg / inhibition at 0.1 mg/kg: Canis lupus familiaris, iv, inhibition given with negative sign, read-out: % d'inhibition des effets β1^(+) de l'Isoprénaline; for inhibition at 0.001 mg/kg: 0,001 mg/kg I.V.; for inhibition at 0.003 mg/kg: 0,003 mg/kg I.V.; for inhibition at 0.01 mg/kg: 0,010 mg/kg I.V.; for inhibition at 0.1 mg/kg: 0,100 mg/kg I.V.
Procedure: (§1) Des chiens tout-venants mâles ou femelles sont anesthésiés au mébubarbital sodique (30 mg/kg I.V.) et ventilés artificiellement par une pompe Pesty RPP. Ils sont supplémentés en oxygène.
(§2) On mesure: • - la pression carotidienne systolique et diastolique • - la force contractile du myocarde.
(§3) Les signaux sont amplifiés et enregistrés sur Dynograph Beckman.
(§4) L'activité β bloquante adrénergique a été étudiée vis-à-vis des effets β1 (augmentation de la force contractile du myocarde) et des effets P2 (diminution de la pression artérielle disstolique) de l'isoprénaline administrée par voie intraveineuse.
(§5) On calcule le pourcentsge d'inhibition des effets β1 et des effets β2 de l'isoprénaline en fonction des doses (mg.kg I.V.) des différents exemples.
(§6) Les exemples sont injectés dans le veine saphène aux doses (exprimées en base) de: 0,0003 0,001 0,003 0,01 0,1 1,0 et 4,0 ou 8,0 mg.kg-1.

[2] = test system: rat génétiquement hypertendu: Rat OKAMOTO; experiment: Antihypertensive activity in spontaneously hypertensive rats (tail-cuff systolic pressure and heart rate after oral dosing); type: in vivo
Procedure: Des rats mâles âgés de 13 à 21 semaines présentant une hypertension spontanée génétiquement transmissible (souche OKAMOTO provenance IFFA CREDO) sont placés dans une enceinte thermostatée à 38°C. Les rats sont laissés en situation libre. La pression artérielle est mesurée par un sphygmomanomètre Narco Biosystem. Un manchon est placé à la base de la queue et un détecteur enregistre le pouls en aval du manchon. Celui-ci est gonflé jusqu'à suppression du pouls il est ensuite progressivement dégonflé. La pression mesurée à la reprise des battements cardiaques est la pression artérielle systolique. On calcule la fréquence cardiaque à partir de l'enregistrement du pouls artériel. Les produits à étudiar sont mis en suspension el administrés par voie orale sous un volume de 1 ml pour 100 g de poids corporel. Les mesures sont répétées à intervalles réguliers.
Les valeurs moyennes avant traitement pour les différents lots de rats sont pour la pression artérielle systolique de 190 à 200 mmHg et pour la fréquence cardiaque de 305 à 350 battements par minute.
Le tableau III ci-après donne la moyenne des variations de la pression systolique (mmHg) de la fréquence cardisque (battements/minute) et les écarts type à la moyenne obtenus 1 heure 3 heures et 5 heures après administration orale.

[3] = test system: effets β2 (diminution de la pression artérielle diastolique) de l'isoprénaline; experiment: β-blocking activity: inhibition of the β2 effects of intravenous isoprenaline in anaesthetised dogs; type: in vivo, chiens; details: dog; for inhibition at 0.001 mg/kg / inhibition at 0.003 mg/kg / inhibition at 0.01 mg/kg / inhibition at 0.1 mg/kg: Canis lupus familiaris, iv, inhibition given with negative sign, read-out: % d'inhibition des effets β2^⊕ de l'Isoprénaline; for inhibition at 0.001 mg/kg: 0,001 mg/kg I.V.; for inhibition at 0.003 mg/kg: 0,003 mg/kg I.V.; for inhibition at 0.01 mg/kg: 0,010 mg/kg I.V.; for inhibition at 0.1 mg/kg: 0,100 mg/kg I.V.
Procedure: as §1, §2, §3, §4, §5, §6

[4] = 0.1 mg.kg^-1 voie intraveineuse
[5] = 1.0 mg.kg^-1 voie intraveineuse
[6] = 8.0 mg.kg^-1 voie intraveineuse

Row | Structure (SMILES) | inhibition at 0.001 mg/kg [1] [%] | inhibition at 0.003 mg/kg [1] [%] | inhibition at 0.01 mg/kg [1] [%] | inhibition at 0.1 mg/kg [1] [%] | Fréquence cardiaque Δ (battements/min) T+1 heure m (sm) ([2]; 64 mg.kg^-1 V.O) | Pression systolique Δ (mmHg) T+1 heure m (sm) ([2]; 64 mg.kg^-1 V.O) | Fréquence cardiaque Δ (battements/min) T+3 heures m (sm) ([2]; 64 mg.kg^-1 V.O) | Pression systolique Δ (mmHg) T+3 heures m (sm) ([2]; 64 mg.kg^-1 V.O) | Fréquence cardiaque Δ (battements/min) T+5 heures m (sm) ([2]; 64 mg.kg^-1 V.O) | Pression systolique Δ (mmHg) T+5 heures m (sm) ([2]; 64 mg.kg^-1 V.O) | inhibition at 0.001 mg/kg [3] [%] | inhibition at 0.003 mg/kg [3] [%] | inhibition at 0.01 mg/kg [3] [%] | inhibition at 0.1 mg/kg [3] [%] | Fréquence cardiaque Δ (battements/min) T+1 heure m (sm) ([2]; 128 mg.kg^-1 V.O) | Pression systolique Δ (mmHg) T+1 heure m (sm) ([2]; 128 mg.kg^-1 V.O) | Fréquence cardiaque Δ (battements/min) T+3 heures m (sm) ([2]; 128 mg.kg^-1 V.O) | Pression systolique Δ (mmHg) T+3 heures m (sm) ([2]; 128 mg.kg^-1 V.O) | Fréquence cardiaque Δ (battements/min) T+5 heures m (sm) ([2]; 128 mg.kg^-1 V.O) | Pression systolique Δ (mmHg) T+5 heures m (sm) ([2]; 128 mg.kg^-1 V.O) | other results
1 | C=CCc1cc(NC(=O)Cc2cccs2)ccc1OCC(O)CNC(C)(C)C (stereo not shown) [exemple 11, 1-[2-allyl 4-(2-thiénylacétamido)phénoxy] 3-ter-butylamino 2-propanol] | -11 | -37 | -70 | -100 | +7 (8) battements/min | -54 (1) mmHg | +10 (9) battements/min | -49 (10) mmHg | 0 (9) battements/min | -44 (11) mmHg | 0 | 0 | 0 | -17 |  |  |  |  |  |  | Pourcentages d'inhibition des effets β1 de l'Isoprénaline ([1]; 0.001 mg.kg^-1 voie intraveineuse): 11%; Pourcentages d'inhibition des effets β1 de l'Isoprénaline ([1]; 0.003 mg.kg^-1 voie intraveineuse): 37%; Pourcentages d'inhibition des effets β1 de l'Isoprénaline ([1]; 0.01 mg.kg^-1 voie intraveineuse): 70%; Pourcentages d'inhibition des effets β1 de l'Isoprénaline [1, 4]: 100%; Pourcentages d'inhibition des effets β1 de l'Isoprénaline [1, 5]: 100%; Pourcentages d'inhibition des effets β1 de l'Isoprénaline [1, 6]: 100%; Pourcentages d'inhibition des effets β2 de l'Isoprénaline [3, 4]: 17%; Pourcentages d'inhibition des effets β2 de l'Isoprénaline [3, 5]: 77%; Pourcentages d'inhibition des effets β2 de l'Isoprénaline [3, 6]: 100%
2 | C=CCc1cc(NC(=O)Cc2ccsc2)ccc1OCC(O)CNC(C)(C)C (stereo not shown) [exemple 38, 1-[2-allyl 4-(3-thiénylacétamido)phénoxy] 3-terbutylamino 2-propanol] | -5 | -35 | -73 | -100 | +39 (9) battements/min | -31 (5) mmHg | +21 (9) battements/min | -26 (5) mmHg | +29 (13) battements/min | -34 (7) mmHg | -4 | -4 | -6 | -27 |  |  |  |  |  |  | 
3 | CC(C)(C)NCC(O)COc1ccc(NC(=O)Cc2cccs2)cc1Br (stereo not shown) [exemple 39, 1-[2-bromo 4-(2-thiénylacétamido)phénoxy] 3-terbutylamino 2-propanol] | -11 | -65 | -89 | -100 |  |  |  |  |  |  | 0 | 0 | -5 | -49 | +47 (15) battements/min | -33 (9) mmHg | +56 (4) battements/min | -34 (11) mmHg | +47 (4) battements/min | -43 (9) mmHg | 
4 | CC(C)NCC(O)COc1ccc(NC(=O)Cc2cccs2)cc1Br (stereo not shown) [exemple 40, 1-[2-bromo 4-(2-thiénylacétamido)phénoxy] 3-isopropylamino 2-propanol] | 0 | -19 | -53 | -93 |  |  |  |  |  |  | 0 | 0 | 0 | -4 | +23 (23) battements/min | -58 (10) mmHg | +20 (14) battements/min | -63 (7) mmHg | +18 (11) battements/min | -63 (3) mmHg | 
5 | CC(C)(C)NCC(O)COc1ccc(NC(=O)Cc2ccsc2)cc1Br (stereo not shown) [exemple 41, 1-[2-bromo 4-(3-thiénylacétamido)phénoxy] 3-terbutylamino 2-propanol] | -12 | -49 | -83 | -97 | +57 (18) battements/min | -44 (14) mmHg | +55 (15) battements/min | -30 (10) mmHg | +68 (16) battements/min | -33 (12) mmHg | -3 | 0 | -31 | -55 |  |  |  |  |  |  | 
6 | CC(C)NCC(O)COc1ccc(NC(=O)Cc2ccsc2)cc1Br (stereo not shown) [exemple 42, 1-[2-bromo 4-(3-thiénylacétamido)phénoxy] 3-isopropylamino 2-propanol] | -29 | -51 | -70 | -100 | +50 (19) battements/min | -43 (8) mmHg | +17 (12) battements/min | -55 (7) mmHg | +33 (12) battements/min | -51 (10) mmHg | 0 | 0 | 0 | 0 |  |  |  |  |  |  | 
7 | CC(C)(C)NCC(O)COc1ccc(NC(=O)Cc2cccs2)cc1Cl (stereo not shown) [exemple 43, 1-[2-chloro 4-(2-thiénylacétamido)phénoxy] 3-terbutylamino 2-propanol] | -18 | -49 | -82 | -100 | +13 (20) battements/min | -29 (9) mmHg | +23 (7) battements/min | -44 (6) mmHg | +30 (12) battements/min | -44 (4) mmHg | 0 | 0 | 0 | -22 |  |  |  |  |  |  | 
8 | CC(C)NCC(O)COc1ccc(NC(=O)Cc2cccs2)cc1Cl (stereo not shown) [exemple 44, 1-[2-chloro 4-(2-thiénylacétamido)phénoxy] 3-isopropylamino 2-propanol] | -27 | -46 | -67 | -82 |  |  |  |  |  |  | -11 | -22 | -18 | -15 | +68 (5) battements/min | -37 (11) mmHg | +45 (12) battements/min | -48 (11) mmHg | +52 (11) battements/min | -53 (11) mmHg | 
